Test results reported in patent US5493007A, “Platelet aggregation inhibitors having high specificity for GPIIBIIIA” (Genentech, Inc., priority 1994, dated 1996).
Where “and” joins values, the source holds several entries; their conditions need not be identical. Equal entries are not always repeated. Where two headings read alike, the source gives them in different places. Where a SMILES comes first, the peptide text is derived from it. Bridges are numbered along the chain shown (N, C = ends). [ ]: non-standard residue; d: D form. The star is where a group is joined. Aad = N[C@@H](CCCC(=O)O)C(=O)O; Pen = CC(C)(S)[C@H](N)C(=O)O; dOrn = NCCC[C@@H](N)C(=O)O; Orn = NCCC[C@H](N)C(=O)O; NH(CH2)4NH2 = NCCCCN*; Ava = NCCCCC(=O)O

Tests used:
[1] = molecular target: T1, Vitronectin Receptor (αvβ3) (Homo sapiens, UniProt P05106+P06756); experiment: Human Vitronectin-Vitronectin Receptor (αvβ3) ELISA Assay; type: binding; conditions: purified human αvβ3, vitronectin-coated plates; read-out: ELISA IC50 Vitronectin VnR
T1 construct: Human vitronection receptor (VnR) is purified from human placenta; from tissue; host or cells: human placenta
Excerpt: Human vitronectin (Vn) is isolated from human plasma and purified by affinity chromatography by the method of Yatohgo et. al., (Cell Structure and Function 13:281-292 [1988]).
Human vitronection receptor (VnR) is purified from human placenta by the method of Pytela et al., (Methods Enzymol., 144:475 [1987]). Alternatively the αvβ3 receptor can be purified from some cell lines (e.g., human embryonic kidney 293 cells) transfected with DNA sequences for both the αv and β3 subunits. The subunits are purified by employing octylglucoside extraction followed by Con-A, Heparin-Sepharose, and S-300 Chromatography.
Anti-GP IIb IIIa monoclonal antibodies specific for human GP IIIa are prepared by the method of Newman et al. (Blood, 65:227-232 [1985]), or a similar procedure. This mouse Mab is specific for the β3 subunit of the vitronectin receptor.
Rabbit Fab 2 anti-mouse Fc fragment horse radish peroxidase conjugate (anti-MuFc HRP) is obtained from PelFreeze (cat. no. 715305-1).
Maxisorp microtiter plates are coated with 2 μg/ml human vitronectin dissolved in PBS ([…]) and stored overnight at 4° C. The plates are washed two times with PBS-0.05% Tween-20 (wash buffer) and blocked by incubating with about 150 μl/well of assay buffer (1%, BSA [RIA grade or better] in 50 mM Tris-HCl, 100 mM NaCl, 1 mM MgCl2, CaCl2, MnCl2 pH 7.4) for 60 minutes. Dilutions of standards are prepared and putative inhibitors (Table 3) are dissolved in assay buffer. The blocked plates are emptied and 25 μl/well of inhibitor or standard solution is added to each well. Twenty-five μl of a 30 μg/ml solution of purified αvβ3 in assay buffer is pipetted into the coated plate. The final concentration of receptor in the assay well is about 15 μg/ml. The plate is incubated on a shaker for 60 minutes. Meanwhile, for each microtite plate, 6 ml buffer solution containing 1.5 μg/ml of mouse monoclonal antibody specific for β3 is prepared. To this solution is added μl of the secondary antibody, which is anti-mouse-Fc-HRP antibody conjugate. For example, for one plate, prepare 6 ml of a 1.5 μg/ml mouse Mab solution to which is added 1 μl of anti-mouse-Fc-HRP antibody stock, (this represents a 1:6000 dilution of the antibody - HRP conjugate). This mixture is allowed to incubate during the receptor-inhibitor incubation. The assay plates are washed 4 times with PBS-Tween and 50 μl/well of the antibody mixture is then pipetted into the plate for a 60 minute incubation. The plate is washed 4 times and the color reaction is developed with 50 μl/well of 0.67 mg/ml o-phenyldiamine in PBS containing 0.012% H2 O2. Alternatively, 16 mM citric acid, 50 mM Na2 PO4 at pH 5.0 can be used as a substrate buffer. The reaction is stopped with 50 μl/well 1M H2 SO4. The plates are read at 492-405 nm and the data analyzed by four-parameter fit.

GP IIb IIIa = GP IIb IIIa (Homo sapiens, UniProt P05106+P08514); experiment: GP IIb IIIa -von Willebrand factor (vWF) ELISA Assay; type: binding; parameters: GP IIb IIIa, prepared by the method of Fitzgerald et al; from tissue
Method: Microtiter plates are coated with 1.0 μg/ml GP IIb IIIa, prepared by the method of Fitzgerald et al., (Anal. Biochem. 151:169-177 [1985]) and allowed to incubate overnight in coat buffer. The plates are then washed three times in wash buffer (0.05% Tween 20 in PBS) and 150 μl of assay buffer is added and allowed to incubate for 1-2 hours at room temperature on plate shaker. The plates are washed three times and 50 μl of 2x inhibitor in assay buffer (Assay buffer: 0.5% BSA/50 mM Tris, 100 mM NaCl, 1.0 mM CaCl2, 1.0mM MgCl2, 1.0 mM MnCl2; coat buffer is the same but without BSA) is added. Fifty μl of 4.0 μg/ml vWF (prepared as described by Ledford et al., Thrombosis and Haemostasis, 64(4): 569-575 [1990]) in assay buffer is then added and allowed to incubate for one hour at room temperature on plate-shaker. The plates are washed three times and the antibody mixture is added (1:5000 of mouse anti-vWF and 1:5000 of rabbit-anti-mouse-Fc-HRP, both commercially available) in assay buffer and incubated for 1 hour at room temperature on plate-shaker. Plates are again washed three times and 100 μl of substrate solution (10 mg OPD, 6.5 μl H2 O2, 15 ml phosphate citrate buffer) is added and incubated at room temperature. The color change of OPD/H2 O2 reagent is read at 492 nm with a 405 nm reference wavelength on the filter photometer.

[2] = system: New Zealand White rabbits; experiment: Rabbit cutaneous bleeding time (CBT); conditions: for Rabbit BT Ratio: Example 1, at the % P.A. inhibition given
Method: Unanesthetized male New Zealand White rabbits (2.5-3.5 kg) are placed in a standard rabbit restrainer. Ears are shaved and a 20 G Teflon catheter with flowswitch (Viggo) is placed in the medial artery, flushed with saline and locked with 1 ml of heparinized saline (10 m/ml). A 22 G catheter (Abbott) fitted with an injection cap (Medex) is placed in the marginal vein of the same ear. Saline or a GP IIb IIIa receptor antagonist, at a concentration of 1 to 3 mg/ml, is infused via the venous catheter. At time 0, 41% of the dose is given as a bolus over 2 minutes. The remainder is continuously infused over the following 60 minutes. Blood samples (3.2 ml) are collected into syringes without needles via the arterial catheter at -10, -5, 10, 45, and 60 minutes. The first 0.5 ml is discarded and the following 2.7 ml is collected directly into a syringe containing 0.3 ml of 3.8% sodium citrate. The sample is divided into 1.5 ml aliquots and centrifuged at room temperature for 5 seconds at 12,000 G. The resulting platelet rich plasma (PRP) is used to measure ex-vivo platelet aggregation (XPA). At -10 and 60 minutes an additional 1 cml sample is drawn for an automated blood count (Baker instruments). Catheters are flushed and locked after every sample.
CBT is measured at -10, -5, 10, and 45 minutes on the opposite ear, using an automated incision-making instrument (Surgicutt®, ITD). An incision (5mm×1 mm deep) is made on the dorsal surface of the ear at sites not supplied by major blood vessels. Blood is blotted away with absorbent paper placed near the incision site, every 2 to 15 seconds, to a maximum of 15 minutes. Cessation of bleeding is defined as no blood forming at the incision site for 15 seconds. The range of duplicate CBT in 40 normal rabbits was 0.88 to 3.38 minutes.

[3] = molecular target: human platelet rich plasma (PRP) (Homo sapiens, UniProt P05106+P08514); experiment: In Vitro Human Platelet Aggregation Assay; type: cell-based; conditions: for platelet aggregation inhibition potency, result in words: human platelet aggregation in vitro
Method: Platelet aggregation assays are performed in human platelet rich plasma (PRP). Fifty milliliters of whole human blood (9 parts) is drawn on 3.6% sodium citrate (1 part) from a donor who has not taken aspirin or related medications for at least two weeks. The blood is centrifuged at 160×g for 10 minutes at 22° C. and allowed to stand for 5 minutes after which the PRP is decanted. Platelet poor plasma (PPP) is isolated from the remaining blood after centrifugation at 2000×g for 25 minutes. The platelet count of the PRP is diluted to about 300,000 platelets per microliter with PPP.
A 225 μl aliquot of PRP plus 25 μl of either a dilution of the test inhibitor sample or a control (PBS) is incubated for 5 minutes in a Chrono-log Whole Blood Aggregometer at 25° C. An aggregating agent (collagen, 1 μg/ml; U46619, 100 ng/ml; or ADP, 17 μM) is added and the transmission is recorded.

[4] = GP IIb IIIa-coated plates, vWF, read-out: ELISA IC50 GPIIb IIIa vWF
[5] = human PRP, read-out: Human Platelet Aggregation IC50

GP IIb IIIa, sequence (P08514 32-887 limits assumed): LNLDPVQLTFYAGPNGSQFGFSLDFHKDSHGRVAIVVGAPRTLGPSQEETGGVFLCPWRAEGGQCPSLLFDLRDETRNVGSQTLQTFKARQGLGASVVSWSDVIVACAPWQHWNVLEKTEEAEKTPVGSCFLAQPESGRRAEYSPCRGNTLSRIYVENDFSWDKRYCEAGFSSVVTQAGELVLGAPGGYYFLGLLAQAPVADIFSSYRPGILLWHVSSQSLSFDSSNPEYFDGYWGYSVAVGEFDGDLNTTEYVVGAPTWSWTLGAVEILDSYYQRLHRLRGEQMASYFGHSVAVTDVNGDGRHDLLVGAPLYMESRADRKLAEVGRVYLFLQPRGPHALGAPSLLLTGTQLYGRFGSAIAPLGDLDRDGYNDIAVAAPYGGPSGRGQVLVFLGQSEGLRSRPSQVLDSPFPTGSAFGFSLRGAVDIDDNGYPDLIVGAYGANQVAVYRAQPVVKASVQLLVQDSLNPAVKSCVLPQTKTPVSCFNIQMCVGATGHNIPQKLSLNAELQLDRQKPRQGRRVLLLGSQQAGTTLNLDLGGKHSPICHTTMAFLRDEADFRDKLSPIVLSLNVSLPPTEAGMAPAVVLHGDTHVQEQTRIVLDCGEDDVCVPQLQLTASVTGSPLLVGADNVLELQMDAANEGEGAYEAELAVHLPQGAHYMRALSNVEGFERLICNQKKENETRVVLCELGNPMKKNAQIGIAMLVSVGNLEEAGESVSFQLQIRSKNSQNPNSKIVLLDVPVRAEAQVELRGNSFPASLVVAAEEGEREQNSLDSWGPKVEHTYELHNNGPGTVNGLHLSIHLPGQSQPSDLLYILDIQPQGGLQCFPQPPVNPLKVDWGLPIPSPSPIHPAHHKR
GP IIb IIIa, sequence (P08514 891-1039 partner limits assumed): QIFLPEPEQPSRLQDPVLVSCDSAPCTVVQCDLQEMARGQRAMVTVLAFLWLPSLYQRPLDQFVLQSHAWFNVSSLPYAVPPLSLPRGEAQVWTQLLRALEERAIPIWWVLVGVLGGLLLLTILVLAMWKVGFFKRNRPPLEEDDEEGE
GP IIb IIIa, sequence (P05106 27-788): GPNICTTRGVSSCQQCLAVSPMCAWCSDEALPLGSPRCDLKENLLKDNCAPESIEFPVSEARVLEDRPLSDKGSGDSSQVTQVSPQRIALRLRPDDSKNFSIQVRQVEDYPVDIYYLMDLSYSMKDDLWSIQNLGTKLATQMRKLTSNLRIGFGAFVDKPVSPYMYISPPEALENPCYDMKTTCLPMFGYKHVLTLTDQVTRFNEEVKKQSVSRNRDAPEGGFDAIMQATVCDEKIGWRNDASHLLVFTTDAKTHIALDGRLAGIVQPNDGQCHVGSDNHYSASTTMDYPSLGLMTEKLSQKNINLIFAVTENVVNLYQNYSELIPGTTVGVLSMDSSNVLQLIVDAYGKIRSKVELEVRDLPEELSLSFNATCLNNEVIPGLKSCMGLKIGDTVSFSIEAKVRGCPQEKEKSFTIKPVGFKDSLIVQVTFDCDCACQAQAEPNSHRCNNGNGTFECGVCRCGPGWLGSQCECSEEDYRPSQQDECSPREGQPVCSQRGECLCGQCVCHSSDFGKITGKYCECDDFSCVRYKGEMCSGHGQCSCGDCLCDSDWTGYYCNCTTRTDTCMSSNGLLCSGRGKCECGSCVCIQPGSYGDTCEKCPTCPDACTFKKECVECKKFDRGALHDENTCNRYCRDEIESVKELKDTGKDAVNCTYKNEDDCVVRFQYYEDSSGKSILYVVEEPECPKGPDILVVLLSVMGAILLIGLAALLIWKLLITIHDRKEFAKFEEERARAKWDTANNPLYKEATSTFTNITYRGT
human platelet rich plasma (PRP), sequence (P08514 32-1039): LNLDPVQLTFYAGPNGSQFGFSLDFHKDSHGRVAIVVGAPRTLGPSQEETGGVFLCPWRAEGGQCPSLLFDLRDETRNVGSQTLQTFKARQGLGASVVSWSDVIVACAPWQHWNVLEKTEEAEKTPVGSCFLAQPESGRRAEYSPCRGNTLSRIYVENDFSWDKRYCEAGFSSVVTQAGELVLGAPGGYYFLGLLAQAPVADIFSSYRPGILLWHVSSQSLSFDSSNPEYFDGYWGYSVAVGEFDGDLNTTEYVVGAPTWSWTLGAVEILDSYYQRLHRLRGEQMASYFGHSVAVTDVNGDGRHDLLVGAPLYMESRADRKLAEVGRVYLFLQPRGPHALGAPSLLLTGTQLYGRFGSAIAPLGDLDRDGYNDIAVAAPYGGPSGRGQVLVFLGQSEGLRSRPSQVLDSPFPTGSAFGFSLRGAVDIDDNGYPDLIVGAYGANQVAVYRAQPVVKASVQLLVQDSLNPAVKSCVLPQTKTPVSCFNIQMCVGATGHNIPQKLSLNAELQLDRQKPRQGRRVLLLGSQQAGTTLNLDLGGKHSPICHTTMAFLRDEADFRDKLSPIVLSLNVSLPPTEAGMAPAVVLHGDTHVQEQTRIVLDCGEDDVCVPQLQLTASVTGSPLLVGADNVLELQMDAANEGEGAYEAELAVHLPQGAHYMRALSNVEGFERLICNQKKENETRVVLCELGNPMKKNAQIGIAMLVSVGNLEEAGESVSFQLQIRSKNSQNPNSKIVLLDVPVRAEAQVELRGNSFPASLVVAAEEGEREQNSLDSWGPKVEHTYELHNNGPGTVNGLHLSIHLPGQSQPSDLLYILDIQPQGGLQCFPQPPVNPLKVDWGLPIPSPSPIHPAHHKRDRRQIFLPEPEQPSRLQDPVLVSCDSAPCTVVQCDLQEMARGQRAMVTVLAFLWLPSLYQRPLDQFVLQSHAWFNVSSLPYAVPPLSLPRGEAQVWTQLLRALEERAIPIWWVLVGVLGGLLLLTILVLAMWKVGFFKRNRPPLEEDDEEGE
human platelet rich plasma (PRP), sequence (P05106 27-788): as the sequence (P05106 27-788) above
T1 sequence (P06756 31-889 limits assumed): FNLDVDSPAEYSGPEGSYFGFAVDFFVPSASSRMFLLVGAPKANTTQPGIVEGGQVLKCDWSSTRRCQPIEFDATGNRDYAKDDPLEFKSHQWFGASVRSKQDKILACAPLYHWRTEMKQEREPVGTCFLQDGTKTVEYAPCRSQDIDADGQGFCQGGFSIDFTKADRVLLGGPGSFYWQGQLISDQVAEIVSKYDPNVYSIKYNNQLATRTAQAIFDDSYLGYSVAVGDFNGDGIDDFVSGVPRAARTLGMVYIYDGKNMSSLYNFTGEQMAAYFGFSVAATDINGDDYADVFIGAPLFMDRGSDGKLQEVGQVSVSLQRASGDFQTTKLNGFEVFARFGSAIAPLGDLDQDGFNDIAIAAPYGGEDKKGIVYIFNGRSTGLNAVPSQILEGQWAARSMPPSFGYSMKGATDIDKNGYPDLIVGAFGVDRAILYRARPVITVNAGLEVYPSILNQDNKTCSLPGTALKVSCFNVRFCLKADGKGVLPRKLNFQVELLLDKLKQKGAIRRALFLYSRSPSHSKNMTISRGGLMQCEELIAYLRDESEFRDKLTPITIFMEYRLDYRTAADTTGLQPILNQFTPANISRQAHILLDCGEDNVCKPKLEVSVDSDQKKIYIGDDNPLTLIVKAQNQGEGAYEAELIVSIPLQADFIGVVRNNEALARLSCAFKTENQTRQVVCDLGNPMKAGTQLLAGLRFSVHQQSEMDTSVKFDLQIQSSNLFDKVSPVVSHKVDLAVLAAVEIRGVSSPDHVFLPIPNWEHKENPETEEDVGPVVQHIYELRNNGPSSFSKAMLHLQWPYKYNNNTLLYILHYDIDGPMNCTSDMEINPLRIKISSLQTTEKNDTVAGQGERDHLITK
T1 sequence (P06756 891-1048 partner limits assumed): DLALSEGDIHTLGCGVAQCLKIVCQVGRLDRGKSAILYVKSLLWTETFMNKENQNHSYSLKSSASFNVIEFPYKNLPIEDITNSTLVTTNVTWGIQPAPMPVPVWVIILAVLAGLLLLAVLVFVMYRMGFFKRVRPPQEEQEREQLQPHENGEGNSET
T1 sequence (P05106 27-788): as the sequence (P05106 27-788) above

| SMILES | IC50 [1] [nM] | IC50 (GP IIb IIIa; [4]) [nM] | Rabbit BT Ratio ([2]; rabbit) | IC50 [3, 5] | other results |
| --- | --- | --- | --- | --- | --- |
| N=C(N)NCCC[C@@H]1NC(=O)[C@@H](Cc2ccc(O)cc2)NC(=O)CSC[C@@H](C(=O)N[C@H](CCCCN)C(N)=O)NC(=O)[C@H](CC(=O)O)NC(=O)CNC1=O [7/4, cyclo-S-acetyl-dTyr--Arg--Gly--Asp--Cys--dLys--NH2] ({CH2CO}-[dY]RGDC[dK]-NH2; thioether N-5) | 17 | 1.56 | – | – | – |
| N=C(N)NCCC[C@@H]1NC(=O)[C@@H](Cc2ccc(O)cc2)NC(=O)CSC[C@@H](C(=O)N[C@@H](CCCN)C(N)=O)NC(=O)[C@H](CC(=O)O)NC(=O)CNC1=O [7/5, cyclo-S-acetyl-dTyr--Arg--Gly--Asp--Cys--Orn--NH2] ({CH2CO}-[dY]RGDC[Orn]-NH2; thioether N-5) | 45 | 6.84 | 1.26 | – | – |
| N=C(N)NCCC[C@@H]1NC(=O)[C@@H](Cc2ccc(O)cc2)NC(=O)CSC[C@@H](C(=O)NCCCCN)NC(=O)[C@H](CC(=O)O)NC(=O)CNC1=O [8/12, cyclo-S-acetyl-dTyr--Arg--Gly--Asp--Cys--NH--X (X = butylamine)] ({CH2CO}-[dY]RGDC-{NH(CH2)4NH2}; thioether N-5) | 70 | 5.4 | 0.94 | 390 nM | – |
| CC1(C)SCC(=O)N[C@H](Cc2ccc(O)cc2)C(=O)N[C@@H](CCCCN)C(=O)NCC(=O)N[C@@H](CC(=O)O)C(=O)N[C@@H]1C(=O)N[C@@H](CCCNC(=N)N)C(N)=O [7/16, cyclo-S-acetyl-dTyr--Lys--Gly--Asp--Pen--Arg--NH2] ({CH2CO}-[dY]KGD[Pen]R-NH2; thioether N-5) | 120000 | 53.5 | – | 500 nM and 506 nM | cutaneous bleeding time, result in words [2]: without substantial increased cutaneous bleeding time |
| N=C(N)NCCC[C@H](NC(=O)[C@@H]1CSCC(=O)N[C@H](Cc2ccc(O)cc2)C(=O)N[C@@H](CCCNC(=N)N)C(=O)NCC(=O)N[C@@H](CC(=O)O)C(=O)N1)C(N)=O [7/1, cyclo-S-acetyl-dTyr--Arg--Gly--Asp--Cys--Arg--NH2] ({CH2CO}-[dY]RGDCR-NH2; thioether N-5) | 49 | – | 1.7 | 80 nM and 83 nM | increase in cutaneous bleeding time ([2]; dosed to 100% inhibition of platelet aggregation): 1.17 times; platelet aggregation inhibition potency, result in words [3]: equipotent; IC50 (GP IIb IIIa; unit inferred, read-out: IC50 in the GPIIb IIIa -vWF ELISA): 13.8 nM |
| N=C(N)NCCC[C@H](NC(=O)[C@H](Cc1ccc(O)cc1)NC(=O)[C@@H]1CSCC(=O)N[C@H](Cc2ccc(O)cc2)C(=O)N[C@@H](CCCNC(=N)N)C(=O)NCC(=O)N[C@@H](CC(=O)O)C(=O)N1)C(N)=O [7/7, cyclo-S-acetyl-dTyr--Arg--Gly--Asp--Cys--Tyr--Arg--NH2] ({CH2CO}-[dY]RGDCYR-NH2; thioether N-5) | 51 | – | 4.10 | – | – |
| N=C(N)NCCC[C@@H]1NC(=O)[C@@H](Cc2ccc(O)cc2)NC(=O)CSC[C@@H](C(=O)O)NC(=O)[C@H](CC(=O)O)NC(=O)CNC1=O [7/46, cyclo-S-acetyl-dTyr--Arg--Gly--Asp--Cys--OH] ({CH2CO}-[dY]RGDC-OH; thioether N-5) | 5 | 0.18 | – | 150 nM | cutaneous bleeding time, result in words [2]: prolongation of bleeding time in vivo in both the rabbit and dog model; increase of cutaneous bleeding time compared to the undosed animal ([2]; rabbit, dose sufficient to achieve about 97% inhibition of platelet aggregation): 8.0 times |
| N=C(N)NCCC[C@@H]1NC(=O)[C@@H](Cc2ccc(O)cc2)NC(=O)CSC[C@@H](C(=O)N[C@@H](CCC(N)=O)C(N)=O)NC(=O)[C@H](CC(=O)O)NC(=O)CNC1=O [7/27, cyclo-S-acetyl-dTyr--Arg--Gly--Asp--Cys--Gln--NH2] ({CH2CO}-[dY]RGDCQ-NH2; thioether N-5) | 49 | – | 0.77 and 0.93 | 1760 nM | cutaneous bleeding time, result in words [2]: did not increase cutaneous blood time; platelet aggregation inhibition potency, result in words [3]: did not significantly improve potency |
| N=C(N)NCCC[C@@H]1NC(=O)[C@@H](Cc2ccc(O)cc2)NC(=O)C(CCCCN)SC[C@@H](C(=O)O)NC(=O)[C@H](CC(=O)O)NC(=O)CNC1=O (single isomer, unassigned) [9/11, cyclo-S-2-L-(6-aminocaproyl)-Lys--dTyr--Arg--Gly--Asp--Cys--OH] | 11.2 | 6.95 | – | 3180 nM | – |
| N=C(N)NCCC[C@@H]1NC(=O)[C@@H](Cc2ccc(O)cc2)NC(=O)CSC[C@@H](C(=O)N[C@H](CCCNC(=N)N)C(N)=O)NC(=O)[C@H](CC(=O)O)NC(=O)CNC1=O [7/2, cyclo-S-acetyl-dTyr--Arg--Gly--Asp--Cys--dArg--NH2] ({CH2CO}-[dY]RGDC[dR]-NH2; thioether N-5) | 22 | 2.93 | – | – | – |
| N=C(N)NCCC[C@@H]1NC(=O)[C@@H](Cc2ccc(O)cc2)NC(=O)CSC[C@@H](C(=O)N[C@H](CCCN)C(N)=O)NC(=O)[C@H](CC(=O)O)NC(=O)CNC1=O [7/6, cyclo-S-acetyl-dTyr--Arg--Gly--Asp--Cys--dOrn--NH2] ({CH2CO}-[dY]RGDC[dOrn]-NH2; thioether N-5) | 55 | 1.92 | – | 1180 nM | – |
| N=C(N)NCCC[C@@H]1NC(=O)[C@@H](Cc2ccc(O)cc2)NC(=O)CSC[C@@H](C(=O)NCCCCC(=O)O)NC(=O)[C@H](CC(=O)O)NC(=O)CNC1=O [7/28, cyclo-S-(1-5)-dTyr--Arg--Gly--Asp--Cys--X (X = aminovaleric acid)] ({CH2CO}-[dY]RGDC[Ava]-OH; thioether N-5) | 650 | – | – | – | IC50 ([3]; read-out: platelet aggregation inhibition IC50): 52200 nM |
| N=C(N)NCCC[C@H](NC(=O)[C@@H]1CCCC(=O)N[C@H](Cc2ccc(O)cc2)C(=O)N[C@@H](CCCNC(=N)N)C(=O)NCC(=O)N[C@@H](CC(=O)O)C(=O)N1)C(N)=O [10/19, cyclo(1-5)dTyr--Arg--Gly--Asp--L-α-aminoadipic acid-Arg--NH2] ([dY]RGD[Aad]R-NH2; lactam N-5) | 32 | 2.9 | – | 180 nM and 205 nM | – |
